Measurements taken from publication PMC3779521 (Organic letters, 2013).

Tested on: CazF
Assay type: biochemical
Conditions: propargyl donor at MT domain; co-substrate acetoacetyl-SNAC (4)

C#CC[Se+](CC[C@H](N)C(=O)O)C[C@H]1O[C@@H](n2cnc3c(N)ncnc32)[C@H](O)[C@@H]1O (stereo partly drawn) [compound 2, propargylic Se-adenosyl-L-methionine]
Km: 43.6 µM
